Inhibition data for 46 compounds are collected here from paper PMC8041284, “Tunable Methacrylamides for Covalent Ligand Directed Release Chemistry” (Journal of the American Chemical Society, 2021).

As usually defined, the inhibition is the change of the read-out against control, counted positive when it falls.

The first experiment deals with BTK (Homo sapiens, UniProt Q06187). The experiment can be described thus: biochemical. The note with it: read-out: BTK inhibition (%).
Chain of BTK (Q06187 402-655 limits assumed): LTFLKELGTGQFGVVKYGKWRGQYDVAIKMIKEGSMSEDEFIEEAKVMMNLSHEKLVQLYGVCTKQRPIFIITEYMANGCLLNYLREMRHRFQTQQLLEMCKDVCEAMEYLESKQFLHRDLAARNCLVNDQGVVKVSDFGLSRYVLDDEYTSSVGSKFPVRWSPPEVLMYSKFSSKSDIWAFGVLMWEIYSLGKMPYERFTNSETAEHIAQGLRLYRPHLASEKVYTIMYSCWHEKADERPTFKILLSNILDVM
Take `O=P(O)(O)Oc1cccc2ccccc12` [PCM-0216167]: the inhibition at 10 µM is -4.6%.

The same experiment, now with this note: read-out: BTK inhibition (%), 0.75 uM BTK, […] probe 3l, 15 min preincubation.
Regarding `O=C(O)COc1ccc(Br)cc1/C=C1\SC(=S)N(Cc2cccnc2)C1=O` [PCM-0216029], the inhibition at 10 µM stood at 7.7%.

As to `CN(C)CC/C=C1/c2ccccc2Sc2ccc(Cl)cc21` [PCM-0095101], the inhibition at 10 µM is 10.9%.

Regarding `CC1(C)CCCC2(C)OC(=O)C=C12` (stereo not shown) [PCM-0214965], the inhibition at 10 µM turned out to be 8.6%.

As to `O=C(Nc1ccc(Cl)cc1)C1CCCN(C(=O)c2cccc(-c3ccco3)c2)C1` (stereo not shown) [PCM-0102067], the inhibition at 10 µM was 40.9%.

For `O=C(Oc1coc(CSc2ncccn2)cc1=O)c1ccc([N+](=O)[O-])cc1` [PCM-0216050], the inhibition at 10 µM was -3.9%.

For the compound `NC(=S)c1ccncc1` [PCM-0214940], the inhibition at 10 µM was determined as 7.8%.

With `Cc1cc(Cn2cnc3c2C[C@@H](C(=O)O)N(C(=O)C(c2ccccc2)c2ccccc2)C3)ccc1N(C)C` [PCM-0215225], the inhibition at 10 µM is 6.2%.

In the case of `COC(=O)[C@]12CCC(C)(C)C[C@H]1[C@H]1C(=O)C=C3[C@@]4(C)C=C(C#N)C(=O)C(C)(C)[C@@H]4CC[C@@]3(C)[C@]1(C)CC2` [PCM-0215239], the inhibition at 10 µM was 16.6%.

On to `CCC[C@@H]1C[C@@H](C(=O)N[C@@H]([C@H]2O[C@H](SC)[C@H](OP(=O)(O)O)[C@@H](O)[C@H]2O)[C@H](C)Cl)N(C)C1` [PCM-0095212], for which the inhibition at 10 µM is -5.1%.

For the compound `Oc1ccc(CC2NCCc3cc(O)c(O)cc32)cc1` (stereo not shown) [PCM-0214948], the inhibition at 10 µM is -5.4%.

As to `O=C(O)c1ccc(Nc2ncc3c(n2)-c2ccc(Cl)cc2C(c2c(F)cccc2F)=NC3)cc1` [PCM-0095077], the inhibition at 10 µM came to 79.3%.

For `Cc1cc(N2CCOCC2)ccc1Nc1nc(NC2CCCCC2)c2[nH]cnc2n1` [PCM-0215306], the inhibition at 10 µM came to 33.2%.

For the compound `O=c1[nH]nc2c3c(cccc13)NC(CN1Cc3ccccc3C1)=N2` [PCM-0215799], the inhibition at 10 µM worked out at 0.8%.

As for `c1cc(-c2cnn3cc(-c4ccc(N5CCNCC5)cc4)cnc23)c2cccnc2c1` [PCM-0095784], the inhibition at 10 µM was 3.9%.

`O=C(O)[C@H](O)[C@H](O)[C@@H](O)[C@H](O)[C@H](O)CO` [PCM-0215251]: the inhibition at 10 µM was -28.9%.

As to `O=S(=O)(NCCSSCCNS(=O)(=O)c1cc(Cl)ccc1Cl)c1cc(Cl)ccc1Cl` [PCM-0215542], the inhibition at 10 µM was found to be 5.4%.

Regarding `CN(C)C(=O)c1ccc(S(=O)(=O)c2ccc(NC(=O)[C@@](C)(O)C(F)(F)F)c(Cl)c2)cc1` [PCM-0215295], the inhibition at 10 µM worked out at 3.1%.

As to `CN1CCN(c2ccc(Nc3ncc4cc(C#N)c(=O)n(C5CCCC5)c4n3)cc2)CC1` [PCM-0215612], the inhibition at 10 µM amounted to 19.3%.

For the compound `CC1=C(/C=C/C(C)=C/C=C/C(C)=C/C=C/C=C(C)/C=C/C=C(C)/C=C/C2=C(C)CCCC2(C)C)C(C)(C)CCC1` [PCM-0090171], the inhibition at 10 µM is 24.7%.

In the case of `CO/N=C(\C(=O)N[C@@H]1C(=O)N2C(C(=O)OCOC(=O)C(C)(C)C)=C(C)CS[C@H]12)c1csc(N)n1` [PCM-0216124], the inhibition at 10 µM is -4.7%.

Turning to `CCOc1nc2cccc(C(=O)OC(C)OC(=O)OC3CCCCC3)c2n1Cc1ccc(-c2ccccc2-c2nn[nH]n2)cc1` (stereo not shown) [PCM-0090385], the inhibition at 10 µM turned out to be 53.7%.

For `O=C(CO)[C@@H](O)[C@H](O)[C@@H](O)CO` [PCM-0216101], the inhibition at 10 µM is -4.3%.

In the case of `CCCCNC(=O)NS(=O)(=O)c1ccc(C)cc1` [PCM-0064855], the inhibition at 10 µM is -11.7%.

Take `O=C(CCCCCCC(=O)N/N=C/c1ccc(N(c2ccccc2)c2ccccc2)cc1)NO` [PCM-0215937]: the inhibition at 10 µM was found to be 15.4%.

For `COc1cc(N2CCC(N3CCN(C)CC3)CC2)ccc1Nc1ncnc(Nc2ccccc2S(=O)(=O)C(C)C)n1` [PCM-0215273], the inhibition at 10 µM turned out to be 89%.

In the case of `Cc1cc(F)c(Nc2ncnc3cc(OCc4ccccc4)ccc23)cc1O` [PCM-0095349], the inhibition at 10 µM worked out at 46.9%.

Take `COC(=O)CC[C@H](NC(=O)[C@H](CC(=O)OC)NC(=O)OCc1ccccc1)C(=O)N[C@H](C(=O)N[C@@H](CC(=O)OC)C(=O)CF)C(C)C` [PCM-0215362]: the inhibition at 10 µM turned out to be 15.4%.

As to `CNc1ncc2cc(-c3cc(NC(=O)NCCC(C)(C)C)c(F)cc3C)c(C)nc2n1` [PCM-0215477], the inhibition at 10 µM worked out at 40.9%.

Regarding `COc1cc(O)cc2c1C(=O)C[C@@H](c1ccccc1)O2` [PCM-0214998], the inhibition at 10 µM is -12.5%.

Take `O=C(O)c1cc(O)ccc1O` [PCM-0215019]: the inhibition at 10 µM was -21.4%.

With `CCCCCCCCOC(=O)c1cc(O)c(O)c(O)c1` [PCM-0216629], the inhibition at 10 µM was determined as 3.9%.

Take `CC1(C)CCC[C@]2(C)[C@H]3CC(=O)O[C@]3(C)CC[C@@H]12` [PCM-0090818]: the inhibition at 10 µM was -18.7%.

Turning to `COc1cc(/C=C/C(=O)CC(=O)/C=C/c2ccc(O)cc2)ccc1O` [PCM-0216521], the inhibition at 10 µM came out at 110%.

Turning to `O=C1O[C@H]2[C@@H]3OC(=O)c4cc(O)c(O)c(O)c4-c4c(cc(O)c(O)c4O)C(=O)OC[C@H]2O[C@@H](OC(=O)c2cc(O)c(O)c(O)c2)[C@@H]3OC(=O)c2cc(O)c(O)c3c2[C@@H]2C1=CC(=O)[C@](O)(O3)C2(O)O` [PCM-0216302], the inhibition at 10 µM is 0%.

For `Cc1cn([C@H]2C[C@H](N=[N+]=[N-])[C@@H](CO)O2)c(=O)[nH]c1=O` [PCM-0085965], the inhibition at 10 µM was -3.1%.

Take `O=C(O)/C=C/CCCCCCCO` [PCM-0214957]: the inhibition at 10 µM was determined as 3.4%.

For the compound `O=C(O)c1cccc(-c2noc(-c3ccccc3F)n2)c1` [PCM-0095566], the inhibition at 10 µM is -10%.

Consider `CO[C@H]1C[C@@H]2CC[C@@H](C)[C@@](O)(O2)C(=O)C(=O)N2CCCC[C@H]2C(=O)O[C@H]([C@H](C)C[C@@H]2CC[C@H](n3cnnn3)[C@H](OC)C2)CC(=O)[C@H](C)/C=C(\C)[C@@H](O)[C@@H](OC)C(=O)[C@H](C)C[C@H](C)/C=C/C=C/C=C/1C` [PCM-0215342], for which the inhibition at 10 µM was found to be 3.4%.

In the case of `C=CC(=O)Nc1cccc(Sc2nc(Nc3ccc(N4CCN(C)CC4)cc3)ncc2Cl)c1` [PCM-0095052], the inhibition at 10 µM amounted to 95.9%.

As to `NCCS(=O)(=O)O` [PCM-0064776], the inhibition at 10 µM was -6%.

`CC(C)(CO)n1cc(C(=O)c2cncc(NC(=O)Cc3ccc(Cl)cn3)c2)c2cnc(N)nc21` [PCM-0215853]: the inhibition at 10 µM amounted to 5.5%.

In the case of `O=c1[nH]c(=O)n(C2CCCO2)cc1F` (stereo not shown) [PCM-0094899], the inhibition at 10 µM was -3.1%.

Regarding `CNC1CCCN(c2c(F)cc3c(=O)c(C(=O)O)cn(C4CC4)c3c2OC)C1` (stereo not shown) [PCM-0095230], the inhibition at 10 µM was -5.4%.

For `CC(=O)N[C@@H](CC(=O)O)C(=O)N[C@@H](CCC(=O)O)C(=O)N[C@H](C(=O)N[C@H](C=O)CC(=O)O)C(C)C` [PCM-0215827], the inhibition at 10 µM was -7.7%.

Turning to `C[C@H]1[C@H](C)CC[C@]2(C(=O)O[C@@H]3O[C@H](CO[C@@H]4O[C@H](CO)[C@@H](O[C@@H]5O[C@@H](C)[C@H](O)[C@@H](O)[C@H]5O)[C@H](O)[C@H]4O)[C@@H](O)[C@H](O)[C@H]3O)CC[C@]3(C)C(=CC[C@@H]4[C@@]5(C)C[C@@H](O)[C@H](O)[C@@](C)(CO)[C@@H]5CC[C@]43C)[C@H]12` [PCM-0214874], the inhibition at 10 µM is -15.9%.
